Activity calls are given as the source filed them.
Legend:
[1] = biological target: T1, Replicative DNA helicase DnaB (Mycobacterium tuberculosis, UniProt P9WMR3); assay: DnaB intein splicing inhibitors, dose response, biochemical, cell-free fluorescence (AID 449749); assay type: functional
T1 sequence (P9WMR3 whole entry): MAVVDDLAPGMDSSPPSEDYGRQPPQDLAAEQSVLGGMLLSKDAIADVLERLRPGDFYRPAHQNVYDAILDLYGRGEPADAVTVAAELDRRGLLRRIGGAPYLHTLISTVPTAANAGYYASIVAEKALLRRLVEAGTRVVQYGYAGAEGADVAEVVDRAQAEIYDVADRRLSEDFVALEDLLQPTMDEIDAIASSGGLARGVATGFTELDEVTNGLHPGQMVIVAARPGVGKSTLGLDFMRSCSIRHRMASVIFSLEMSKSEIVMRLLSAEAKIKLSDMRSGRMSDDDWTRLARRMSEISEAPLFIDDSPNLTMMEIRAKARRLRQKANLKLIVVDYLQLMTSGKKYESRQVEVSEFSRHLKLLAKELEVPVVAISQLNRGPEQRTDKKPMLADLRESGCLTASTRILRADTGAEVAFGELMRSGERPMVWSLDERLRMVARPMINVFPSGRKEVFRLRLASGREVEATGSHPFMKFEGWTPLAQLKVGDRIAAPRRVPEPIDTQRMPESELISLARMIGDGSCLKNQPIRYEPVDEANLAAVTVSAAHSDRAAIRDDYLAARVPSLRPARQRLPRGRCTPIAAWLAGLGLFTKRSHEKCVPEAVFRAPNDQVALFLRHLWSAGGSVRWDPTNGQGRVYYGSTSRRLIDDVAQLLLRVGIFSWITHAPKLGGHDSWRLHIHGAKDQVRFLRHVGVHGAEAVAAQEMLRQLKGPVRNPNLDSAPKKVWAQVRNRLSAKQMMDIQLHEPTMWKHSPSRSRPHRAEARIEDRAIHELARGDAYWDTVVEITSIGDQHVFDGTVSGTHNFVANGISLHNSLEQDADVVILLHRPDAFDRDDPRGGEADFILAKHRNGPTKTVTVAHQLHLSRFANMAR

[2] = biological target: T2, Apoptotic protease-activating factor 1 (Homo sapiens, UniProt O14727); assay type: functional;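 on EC50 Mean: caspase-3 cleavage of fluorogenic Rh110 DEVD substrate downstream of apoptosome activation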
T2 sequence (O14727 whole entry): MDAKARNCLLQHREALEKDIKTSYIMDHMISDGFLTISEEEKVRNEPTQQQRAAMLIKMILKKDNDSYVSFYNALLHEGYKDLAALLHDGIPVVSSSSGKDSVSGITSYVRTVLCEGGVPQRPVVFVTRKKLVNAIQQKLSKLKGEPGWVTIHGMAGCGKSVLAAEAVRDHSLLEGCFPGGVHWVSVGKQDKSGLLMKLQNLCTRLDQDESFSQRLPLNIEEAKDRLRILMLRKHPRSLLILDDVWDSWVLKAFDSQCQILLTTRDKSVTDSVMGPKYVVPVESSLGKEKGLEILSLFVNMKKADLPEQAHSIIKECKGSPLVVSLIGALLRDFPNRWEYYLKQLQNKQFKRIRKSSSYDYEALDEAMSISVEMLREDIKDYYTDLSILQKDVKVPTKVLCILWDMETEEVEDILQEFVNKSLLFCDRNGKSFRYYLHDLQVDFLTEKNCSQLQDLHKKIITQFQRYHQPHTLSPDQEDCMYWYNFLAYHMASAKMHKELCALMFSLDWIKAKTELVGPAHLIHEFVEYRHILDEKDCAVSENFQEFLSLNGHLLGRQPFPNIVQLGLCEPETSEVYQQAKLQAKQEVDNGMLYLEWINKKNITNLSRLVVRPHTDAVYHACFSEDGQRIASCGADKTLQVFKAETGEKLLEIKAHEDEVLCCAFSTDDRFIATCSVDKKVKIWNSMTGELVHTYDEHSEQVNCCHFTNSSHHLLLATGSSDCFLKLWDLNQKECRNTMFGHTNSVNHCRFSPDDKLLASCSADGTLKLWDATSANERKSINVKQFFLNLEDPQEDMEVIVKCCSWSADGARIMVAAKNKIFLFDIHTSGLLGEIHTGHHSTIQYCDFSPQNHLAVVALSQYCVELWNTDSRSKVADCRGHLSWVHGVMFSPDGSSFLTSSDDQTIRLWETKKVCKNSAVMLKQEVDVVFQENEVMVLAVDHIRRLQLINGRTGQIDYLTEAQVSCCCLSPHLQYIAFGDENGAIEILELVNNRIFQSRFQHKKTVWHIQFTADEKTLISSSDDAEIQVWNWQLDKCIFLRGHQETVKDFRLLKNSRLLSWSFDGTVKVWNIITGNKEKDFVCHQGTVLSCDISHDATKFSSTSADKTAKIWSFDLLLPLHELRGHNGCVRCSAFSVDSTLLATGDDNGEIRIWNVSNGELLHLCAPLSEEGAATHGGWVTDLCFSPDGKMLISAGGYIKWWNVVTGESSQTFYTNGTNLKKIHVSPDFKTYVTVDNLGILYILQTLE

Protein RecA = biological target: T3, Protein RecA (Mycobacterium tuberculosis, UniProt P9WHJ3); assay: Fluorescence Cell-Free Homogeneous Dose Retest to Identify Inhibitors of RecA-Intein Splicing Activity. [Related pubchem assays (depositor defined):AID2097, AID2223, AID489010, AID492950]; assay type: functional
T3 sequence (P9WHJ3 whole entry): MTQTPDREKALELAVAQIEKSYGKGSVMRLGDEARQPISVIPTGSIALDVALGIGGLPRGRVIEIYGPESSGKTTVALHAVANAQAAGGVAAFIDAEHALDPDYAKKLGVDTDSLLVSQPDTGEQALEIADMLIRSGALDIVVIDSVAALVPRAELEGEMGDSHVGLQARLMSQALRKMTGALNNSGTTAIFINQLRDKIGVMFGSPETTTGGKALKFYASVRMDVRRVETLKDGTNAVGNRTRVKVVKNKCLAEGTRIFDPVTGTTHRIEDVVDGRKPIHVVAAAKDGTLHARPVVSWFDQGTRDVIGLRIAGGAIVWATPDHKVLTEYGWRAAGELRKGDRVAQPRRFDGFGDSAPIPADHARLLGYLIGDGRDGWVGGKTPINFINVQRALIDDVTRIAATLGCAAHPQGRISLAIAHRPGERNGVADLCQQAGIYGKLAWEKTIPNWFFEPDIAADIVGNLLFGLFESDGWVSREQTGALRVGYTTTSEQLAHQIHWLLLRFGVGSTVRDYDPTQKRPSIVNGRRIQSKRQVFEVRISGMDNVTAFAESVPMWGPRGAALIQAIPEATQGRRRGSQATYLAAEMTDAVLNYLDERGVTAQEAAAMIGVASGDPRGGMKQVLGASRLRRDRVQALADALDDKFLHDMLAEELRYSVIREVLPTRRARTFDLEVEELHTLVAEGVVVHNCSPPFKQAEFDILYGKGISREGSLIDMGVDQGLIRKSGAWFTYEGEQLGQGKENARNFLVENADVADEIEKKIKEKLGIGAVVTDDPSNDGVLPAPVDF

Cytochrome P450 3A4 = Cytochrome P450 3A4 (Homo sapiens, UniProt P08684); details: Potency;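 further: confirmatory qHTS run detecting inhibitors and substrates of CYP3A4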
[3] = biological target: T4, Aryl hydrocarbon receptor (Homo sapiens, UniProt P35869); details: Potency;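 further: confirmatory quantitative high-throughput screen measuring activation of the AhR signaling pathway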
T4 sequence (P35869 whole entry): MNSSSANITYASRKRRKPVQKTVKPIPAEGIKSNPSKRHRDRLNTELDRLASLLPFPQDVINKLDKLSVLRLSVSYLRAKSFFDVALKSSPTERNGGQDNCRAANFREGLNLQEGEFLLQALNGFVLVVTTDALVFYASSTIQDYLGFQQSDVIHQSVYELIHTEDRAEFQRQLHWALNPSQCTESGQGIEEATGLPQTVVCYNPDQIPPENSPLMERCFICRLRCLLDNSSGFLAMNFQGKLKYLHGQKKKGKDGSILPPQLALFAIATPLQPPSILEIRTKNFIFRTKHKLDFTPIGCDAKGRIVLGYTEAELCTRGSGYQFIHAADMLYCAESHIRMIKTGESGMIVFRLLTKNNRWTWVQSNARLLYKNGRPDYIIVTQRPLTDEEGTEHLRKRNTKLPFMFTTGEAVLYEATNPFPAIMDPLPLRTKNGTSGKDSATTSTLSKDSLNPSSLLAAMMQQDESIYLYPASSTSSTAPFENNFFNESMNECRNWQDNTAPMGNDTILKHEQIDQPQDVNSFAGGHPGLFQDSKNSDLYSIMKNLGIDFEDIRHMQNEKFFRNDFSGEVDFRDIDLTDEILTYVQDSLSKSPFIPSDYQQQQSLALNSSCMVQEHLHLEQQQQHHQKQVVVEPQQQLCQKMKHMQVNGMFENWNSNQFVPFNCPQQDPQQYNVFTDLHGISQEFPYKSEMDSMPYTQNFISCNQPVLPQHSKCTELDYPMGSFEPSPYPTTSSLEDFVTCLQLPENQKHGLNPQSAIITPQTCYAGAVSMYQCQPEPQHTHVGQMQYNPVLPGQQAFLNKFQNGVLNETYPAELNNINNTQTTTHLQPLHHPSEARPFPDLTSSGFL

[4] = biological target: T5, Oxysterols receptor LXR-beta (Homo sapiens, UniProt P55055); assay type: functional, cell-based;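 further: Cell-based luminescence dose-response assay of agonist activity at LXR, run as a confirmatory counterscreen to a daf-12 agonist screen; HEK293 cells with Gal4-LXR fusion and GAL4-driven luciferase reporter; agonist potency from rising luciferase signal of a Gal4-LXR reporter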
T5 sequence (P55055 whole entry): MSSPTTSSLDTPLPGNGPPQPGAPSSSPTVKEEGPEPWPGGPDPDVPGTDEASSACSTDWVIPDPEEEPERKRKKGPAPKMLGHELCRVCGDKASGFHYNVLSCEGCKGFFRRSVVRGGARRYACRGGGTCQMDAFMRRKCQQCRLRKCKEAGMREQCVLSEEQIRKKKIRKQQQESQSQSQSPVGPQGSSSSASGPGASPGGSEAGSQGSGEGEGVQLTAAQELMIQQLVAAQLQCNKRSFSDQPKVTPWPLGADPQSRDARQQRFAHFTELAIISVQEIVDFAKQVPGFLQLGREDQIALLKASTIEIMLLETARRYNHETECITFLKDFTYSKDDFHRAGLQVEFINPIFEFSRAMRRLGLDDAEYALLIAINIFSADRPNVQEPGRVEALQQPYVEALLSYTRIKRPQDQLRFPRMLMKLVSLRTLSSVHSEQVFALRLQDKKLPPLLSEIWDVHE

[5] = biological target: Ras and Rab interactor 1/Tyrosine-protein kinase ABL1 (Homo sapiens, UniProt P00519+Q13671); assay type: functional;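 further: biochemical TR-FRET dose-response test measuring inhibition of binding between Rin1 and Abl proteins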
[6] = biological target: Protein disulfide-isomerase (Homo sapiens, UniProt P07237); assay: inhibition of PDI-driven insulin aggregation – biochemical, turbidity, absorbance, cherry-picked samples, dose response (AID 602350); assay type: functional
[7] = biological target: Dual specificity tyrosine-phosphorylation-regulated kinase 1A (Rattus norvegicus, UniProt Q63470); assay type: biochemical, Homo sapiens
[8] = biological target: Tyrosine-protein phosphatase non-receptor type 11 (Homo sapiens, UniProt Q06124); assay: PTPN11 enzyme inhibitors – biochemical, selectivity assay for STEP inhibitor project, dose response (AID 602367); assay type: functional; details: read-out: IC50_Mean
[9] = biological target: Dual specificity protein phosphatase 3 (Homo sapiens, UniProt P51452); assay: VHR phosphatase inhibition, dose response, selectivity assay for STEP inhibitor project, biochemical (AID 602374); assay type: functional; details: read-out: IC50_Mean
[10] = biological target: T6, Low molecular weight phosphotyrosine protein phosphatase (Homo sapiens, UniProt P24666); assay type: functional; details: read-out: IC50_Mean;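 further: Dose-response confirmation assay measuring inhibition of LMPTP enzyme activity by fluorescence intensity read-out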
T6 sequence (P24666 whole entry): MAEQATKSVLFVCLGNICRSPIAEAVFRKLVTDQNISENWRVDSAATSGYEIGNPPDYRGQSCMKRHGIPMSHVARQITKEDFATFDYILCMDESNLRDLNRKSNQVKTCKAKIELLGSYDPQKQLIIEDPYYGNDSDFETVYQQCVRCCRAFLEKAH

[11] = biological target: Tyrosine-protein phosphatase non-receptor type 5 (Homo sapiens, UniProt P54829); assay: PTPN5 enzyme inhibition – biochemical, fluorescence intensity, uHTS hits, confirmation (AID 602372); assay type: functional; details: read-out: IC50_Mean
[12] = biological target: T2, Apoptotic protease-activating factor 1; assay: SAR analysis of small molecule Activators of Apaf-1 in a Fluorescent assay.; assay type: functional; details: read-out: EC50_Mean

Sequence of Protein disulfide-isomerase (P07237 whole entry): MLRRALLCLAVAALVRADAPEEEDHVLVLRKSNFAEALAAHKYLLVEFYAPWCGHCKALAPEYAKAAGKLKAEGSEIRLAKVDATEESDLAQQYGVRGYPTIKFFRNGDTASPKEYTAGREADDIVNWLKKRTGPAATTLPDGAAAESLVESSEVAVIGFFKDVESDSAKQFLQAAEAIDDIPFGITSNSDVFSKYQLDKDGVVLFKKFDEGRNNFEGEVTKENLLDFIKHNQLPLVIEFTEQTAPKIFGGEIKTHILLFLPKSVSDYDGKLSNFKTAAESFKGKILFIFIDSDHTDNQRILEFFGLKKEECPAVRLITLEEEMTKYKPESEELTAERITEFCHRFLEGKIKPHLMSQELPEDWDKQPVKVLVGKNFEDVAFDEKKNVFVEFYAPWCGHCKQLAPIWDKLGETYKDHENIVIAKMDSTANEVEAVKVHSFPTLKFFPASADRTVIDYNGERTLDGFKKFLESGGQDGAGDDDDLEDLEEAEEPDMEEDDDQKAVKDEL
Sequence of Ras and Rab interactor 1/Tyrosine-protein kinase ABL1 (P00519 whole entry): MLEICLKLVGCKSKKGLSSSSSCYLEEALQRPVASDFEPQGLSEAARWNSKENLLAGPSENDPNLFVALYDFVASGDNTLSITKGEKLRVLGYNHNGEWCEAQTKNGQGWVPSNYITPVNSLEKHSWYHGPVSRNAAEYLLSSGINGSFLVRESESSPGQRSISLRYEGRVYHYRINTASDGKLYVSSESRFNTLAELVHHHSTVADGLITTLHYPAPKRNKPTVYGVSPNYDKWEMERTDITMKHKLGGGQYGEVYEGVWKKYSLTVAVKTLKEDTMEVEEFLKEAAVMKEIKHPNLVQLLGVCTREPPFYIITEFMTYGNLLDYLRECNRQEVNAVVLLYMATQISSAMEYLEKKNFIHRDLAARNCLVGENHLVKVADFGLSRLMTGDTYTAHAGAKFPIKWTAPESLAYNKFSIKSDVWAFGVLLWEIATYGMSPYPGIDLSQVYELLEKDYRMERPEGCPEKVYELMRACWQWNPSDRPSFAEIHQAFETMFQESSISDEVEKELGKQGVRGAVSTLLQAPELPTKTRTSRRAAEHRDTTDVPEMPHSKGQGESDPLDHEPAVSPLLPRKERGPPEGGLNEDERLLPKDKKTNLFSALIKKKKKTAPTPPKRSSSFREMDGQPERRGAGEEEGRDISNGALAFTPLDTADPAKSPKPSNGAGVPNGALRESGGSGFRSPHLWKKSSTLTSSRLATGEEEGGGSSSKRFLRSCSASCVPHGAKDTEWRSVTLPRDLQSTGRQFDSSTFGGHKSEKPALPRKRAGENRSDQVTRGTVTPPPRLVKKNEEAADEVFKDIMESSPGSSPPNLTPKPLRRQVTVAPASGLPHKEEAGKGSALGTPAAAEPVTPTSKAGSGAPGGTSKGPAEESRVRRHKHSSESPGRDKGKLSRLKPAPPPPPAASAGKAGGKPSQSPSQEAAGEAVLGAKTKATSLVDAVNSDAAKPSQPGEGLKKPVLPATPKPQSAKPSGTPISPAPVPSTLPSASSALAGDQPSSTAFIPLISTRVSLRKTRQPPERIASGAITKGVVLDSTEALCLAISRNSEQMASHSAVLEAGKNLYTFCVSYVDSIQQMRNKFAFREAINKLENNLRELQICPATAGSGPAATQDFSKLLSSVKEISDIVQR
Sequence of Ras and Rab interactor 1/Tyrosine-protein kinase ABL1 (Q13671 whole entry): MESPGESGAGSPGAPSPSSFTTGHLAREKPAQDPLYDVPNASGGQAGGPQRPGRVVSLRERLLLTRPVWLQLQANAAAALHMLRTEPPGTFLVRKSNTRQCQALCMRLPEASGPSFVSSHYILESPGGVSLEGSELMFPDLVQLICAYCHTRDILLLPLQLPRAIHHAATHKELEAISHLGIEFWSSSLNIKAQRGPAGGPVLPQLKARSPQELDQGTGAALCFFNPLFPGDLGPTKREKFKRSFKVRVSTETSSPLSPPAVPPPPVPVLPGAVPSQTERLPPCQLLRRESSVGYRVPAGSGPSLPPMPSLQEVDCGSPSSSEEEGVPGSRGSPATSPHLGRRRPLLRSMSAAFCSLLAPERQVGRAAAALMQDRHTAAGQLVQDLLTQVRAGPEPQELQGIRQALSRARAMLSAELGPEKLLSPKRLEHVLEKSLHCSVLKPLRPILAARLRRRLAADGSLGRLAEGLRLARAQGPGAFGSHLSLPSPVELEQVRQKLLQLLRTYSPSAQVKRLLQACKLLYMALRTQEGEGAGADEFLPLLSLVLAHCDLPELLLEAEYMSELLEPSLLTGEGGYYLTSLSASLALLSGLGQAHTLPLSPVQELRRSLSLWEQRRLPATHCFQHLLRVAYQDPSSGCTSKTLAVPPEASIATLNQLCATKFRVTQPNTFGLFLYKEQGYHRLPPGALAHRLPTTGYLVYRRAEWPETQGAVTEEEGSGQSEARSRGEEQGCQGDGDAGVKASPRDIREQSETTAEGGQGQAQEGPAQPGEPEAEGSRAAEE
Sequence of Tyrosine-protein phosphatase non-receptor type 5 (P54829 whole entry): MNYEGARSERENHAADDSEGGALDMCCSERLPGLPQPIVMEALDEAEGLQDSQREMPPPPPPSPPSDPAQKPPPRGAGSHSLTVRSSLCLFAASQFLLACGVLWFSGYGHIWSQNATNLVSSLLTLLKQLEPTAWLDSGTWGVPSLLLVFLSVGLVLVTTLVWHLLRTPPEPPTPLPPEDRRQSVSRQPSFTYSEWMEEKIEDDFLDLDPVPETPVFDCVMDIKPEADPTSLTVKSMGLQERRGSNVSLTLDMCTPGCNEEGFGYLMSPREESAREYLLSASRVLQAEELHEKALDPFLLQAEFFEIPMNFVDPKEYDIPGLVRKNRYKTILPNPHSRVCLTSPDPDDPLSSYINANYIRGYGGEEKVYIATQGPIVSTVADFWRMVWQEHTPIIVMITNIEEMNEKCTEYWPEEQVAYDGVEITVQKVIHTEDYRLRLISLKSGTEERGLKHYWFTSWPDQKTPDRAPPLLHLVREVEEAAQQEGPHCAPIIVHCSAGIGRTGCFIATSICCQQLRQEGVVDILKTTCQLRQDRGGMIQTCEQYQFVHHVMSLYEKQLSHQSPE
Sequence of Dual specificity protein phosphatase 3 (P51452 whole entry): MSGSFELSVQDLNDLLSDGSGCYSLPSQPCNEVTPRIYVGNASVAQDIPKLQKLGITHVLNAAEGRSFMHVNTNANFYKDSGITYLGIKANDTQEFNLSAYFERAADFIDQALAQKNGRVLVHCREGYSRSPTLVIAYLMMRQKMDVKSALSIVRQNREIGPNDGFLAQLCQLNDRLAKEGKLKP
Sequence of Cytochrome P450 3A4 (P08684 whole entry): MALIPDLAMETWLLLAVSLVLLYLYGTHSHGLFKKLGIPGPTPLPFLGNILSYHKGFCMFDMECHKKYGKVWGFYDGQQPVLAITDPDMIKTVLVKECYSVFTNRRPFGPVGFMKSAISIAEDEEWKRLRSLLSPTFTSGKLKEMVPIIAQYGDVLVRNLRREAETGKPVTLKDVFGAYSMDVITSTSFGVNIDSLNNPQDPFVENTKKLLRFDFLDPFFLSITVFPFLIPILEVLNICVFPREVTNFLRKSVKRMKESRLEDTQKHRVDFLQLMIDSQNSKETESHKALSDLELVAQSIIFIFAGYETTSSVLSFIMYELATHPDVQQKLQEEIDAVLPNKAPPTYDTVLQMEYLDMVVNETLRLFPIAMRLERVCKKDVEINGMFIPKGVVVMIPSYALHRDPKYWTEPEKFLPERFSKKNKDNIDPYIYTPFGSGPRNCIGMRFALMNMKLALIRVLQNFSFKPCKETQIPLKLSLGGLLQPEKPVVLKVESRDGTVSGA
Sequence of Tyrosine-protein phosphatase non-receptor type 11 (Q06124 whole entry): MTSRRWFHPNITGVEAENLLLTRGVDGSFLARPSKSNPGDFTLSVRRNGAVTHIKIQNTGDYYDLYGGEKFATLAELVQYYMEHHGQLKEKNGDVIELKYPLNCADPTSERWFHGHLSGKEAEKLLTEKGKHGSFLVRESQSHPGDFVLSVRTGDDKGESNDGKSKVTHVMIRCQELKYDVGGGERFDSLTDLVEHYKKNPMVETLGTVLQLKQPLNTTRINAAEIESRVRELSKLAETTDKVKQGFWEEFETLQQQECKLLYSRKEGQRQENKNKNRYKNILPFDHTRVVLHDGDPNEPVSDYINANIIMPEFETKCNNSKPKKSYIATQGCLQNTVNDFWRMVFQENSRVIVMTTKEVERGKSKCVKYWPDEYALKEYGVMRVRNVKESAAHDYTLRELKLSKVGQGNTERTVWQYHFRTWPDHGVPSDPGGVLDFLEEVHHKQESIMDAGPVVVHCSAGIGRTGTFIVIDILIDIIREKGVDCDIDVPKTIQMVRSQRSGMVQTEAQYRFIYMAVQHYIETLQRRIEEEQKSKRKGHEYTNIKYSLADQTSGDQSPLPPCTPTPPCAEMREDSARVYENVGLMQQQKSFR

Question: Which results are given for CCCc1n[nH]c2c1C(c1ccc(OC)c(CSC3=NCCS3)c1)C(C#N)=C(N)O2 (stereo unspecified)?
Answer: AC50 [1]: 2.99 µM (active); IC50 [2]: 23.9 µM (active); EC50 (Protein RecA): 4.56 µM (active)

Question: For Nc1ccc(Cl)c(Cl)c1, which AC50 (Cytochrome P450 3A4) is on record?
Answer: 25.1 µM (inconclusive)

Question: What about the AC50 [3] of the same compound?
Answer: 56.2 µM (inconclusive)

Question: With O=[N+]([O-])c1ccccc1-c1ccc(C(=S)N2CCCC2)o1 as the compound, how does the EC50 (cells) read?
Answer: > 67.5 µM (inactive)

Question: And the IC50 [2]?
Answer: 49.8 µM (active)

Question: And the EC50 [4]?
Answer: > 67.5 µM (inactive)

Question: For CC(C)OC(=O)Cc1ccccc1, which AC50 [3] is on record?
Answer: 35.5 µM (inconclusive)

Question: Which IC50 [5] does the source give for COc1ccccc1CNC(=O)CSc1nnc2ccc(-c3cccnc3)nn12 here?
Answer: > 73.5 µM (inactive)

Question: With C[C@@H]1O[C@@H](O[C@H]2[C@H](O)[C@@H](O)[C@H](Oc3c(-c4ccc(O)cc4)oc4cc(O)cc(O)c4c3=O)O[C@@H]2CO)[C@H](O)[C@H](O)[C@H]1O as the compound, how does the AC50 [6] read?
Answer: 6.92 µM (active)

Question: For C[C@@H]1O[C@@H](OC[C@H]2O[C@@H](Oc3c(-c4ccc(O)c(O)c4)oc4cc(O)cc(O)c4c3=O)[C@H](O)[C@@H](O)[C@@H]2O)[C@H](O)[C@H](O)[C@H]1O, which IC50 [5] is on record?
Answer: > 73.5 µM (inactive)

Question: What about the AC50 [6] of the same compound?
Answer: 7.62 µM (active)

Question: And the AC50 [7]?
Answer: 4.08 µM (active)

Question: With Cc1ccc(S(=O)(=O)N2CCCCC2)cc1NC(=O)c1ccc(=O)[nH]c1 as the compound, how does the IC50 [8] read?
Answer: 4.88 µM (active)

Question: And the IC50 [9]?
Answer: 3.08 µM (active)

Question: And the IC50 [10]?
Answer: 37.1 µM (inactive)

Question: What about the IC50 [11] of the same compound?
Answer: 29.6 µM (inactive)

Question: With CN1CCC(Oc2ccccc2N2CC(C(=O)O)CC2=O)CC1 (stereo unspecified) as the compound, how does the EC50 [12] read?
Answer: > 100 µM (inactive)

Question: With O=C(Nc1ccc(F)cc1F)C1CC(c2ccc(F)cc2)=NO1 (stereo unspecified) as the compound, how does the EC50 [12] read?
Answer: > 100 µM (inactive)

Question: With O=c1c(O[C@@H]2O[C@H](CO)[C@@H](O)[C@H](O)[C@H]2O)c(-c2ccc(O)cc2)oc2cc(O)cc(O)c12 [ASTRAGALIN] as the compound, how does the AC50 [6] read?
Answer: 19 µM (active)

— ChEMBL document CHEMBL1201862, “PubChem BioAssay data set” (2004)
